Converted amounts (≈) assume the structure as drawn.
How the values were obtained:
Keratinocyte = assay: Phototoxicity in human Keratinocytes in presence of UVA at 320 to 400 nm; format: cell-based; conditions: light or radiation study
[1] = Terminal half life in minipig at 1 mg/kg, iv bolus measured over 240 hrs; format: ADME, organism-based, Sus scrofa domesticus; conditions: pig, in vivo, read-out: beta t1/2 (converted)
[2] = Fraction unbound in human plasma; format: ADME, cell-free
[3] = Solubility of compound by lyophilisation solubility assay; format: physicochemical
[4] = Clearance in rat hepatocytes assessed per million cell; format: ADME, cell-based, Hepatocyte; conditions: read-out: CLH
[5] = Fraction unbound in mouse plasma; format: ADME, cell-free
Mus musculus [6] = assay: In vivo modulation of gamma secretase in po dosed APP-Swedish transgenic mouse assessed as reduction in total Abeta42 production level in brain administered as single dose by ELISA or AlphaLISA assay; format: functional, organism-based; conditions: for IC50: Mus musculus
[7] = Thermodynamic solubility of the compound; format: physicochemical
[8] = Cytotoxicity against human embryonic stem cells assessed as reduction in cell viability; format: cell-based
[9] = Dose normalized AUC (infinity) in minipig at 3 mg/kg, po via gavage measured over 240 hrs; format: ADME, organism-based, Sus scrofa domesticus; conditions: pig, in vivo
[10] = Clearance in minipig at 1 mg/kg, iv bolus measured over 240 hrs; format: ADME, organism-based, Sus scrofa domesticus; conditions: pig, in vivo
[11] = Terminal half life in rat at 1 mg/kg, iv bolus measured over 24 hrs; format: ADME, organism-based; conditions: in vivo, read-out: beta t1/2 (converted)
[12] = molecular target: Phosphatidylinositol 4-kinase beta (Homo sapiens, UniProt Q9UBF8); assay: Binding affinity to PIK4CB (unknown origin); format: ADME
[13] = Solubility of the compound in fasted state simulated intestinal fluid; format: physicochemical; conditions: simulated gi fluid
[14] = Clearance in rat at 1 mg/kg, iv bolus measured over 24 hrs; format: ADME, organism-based; conditions: in vivo
[15] = Oral bioavailability in minipig at 3 mg/kg via gavage measured over 240 hrs; format: ADME, organism-based, Sus scrofa domesticus; conditions: pig, in vivo
[16] = Volume of distribution at steady state in rat at 1 mg/kg, iv bolus measured over 24 hrs; format: ADME, organism-based; conditions: in vivo, read-out: Vdss
[17] = Volume of distribution at steady state in minipig at 1 mg/kg, iv bolus measured over 240 hrs; format: ADME, organism-based, Sus scrofa domesticus; conditions: pig, in vivo, read-out: Vdss
[18] = Oral bioavailability in rat at 2 mg/kg via gavage measured over 24 hrs; format: ADME, organism-based; conditions: in vivo
hERG (KCNH2) = hERG (KCNH2) (Homo sapiens, UniProt Q12809); assay: (§1) Inhibition of human ERG; conditions: human
[19] = molecular target: Voltage-gated inwardly rectifying potassium channel KCNH2 (Homo sapiens, UniProt Q12809); assay: as §1
Melanocyte = assay: Phototoxicity in human Melanocytes in presence of UVA at 320 to 400 nm; format: cell-based; conditions: light or radiation study
[20] = Dose normalized AUC (infinity) in rat at 2 mg/kg, po via gavage measured over 24 hrs; format: ADME, organism-based; conditions: in vivo
[21] = Mutagenicity in Salmonella typhimurium by Ames test; format: toxicity; conditions: salmonella enterica subsp. enterica serovar typhimurium
[22] = Fraction unbound in rat plasma; format: ADME, cell-free
[23] = Clearance in mouse hepatocytes assessed per million cells; format: ADME, cell-based, Hepatocyte; conditions: read-out: CLH
[24] = Solubility in fed state simulated intestinal fluids; format: physicochemical; conditions: simulated gi fluid
Mus musculus [25] = organism: Mus musculus; assay: (§2) Modulation of mouse gamma secretase assessed as reduction in Abeta42 production
[26] = as §2
[27] = Octanol/water distribution co-efficient, log D of the compound at pH 7.4; format: physicochemical
[28] = Clearance in human hepatocytes assessed per million cells; format: ADME, cell-based, Hepatocyte; conditions: read-out: CLH
[29] = molecular target: Gamma-secretase (Homo sapiens) (UniProt Q96BI3+Q9NZ42+Q8WW43+P49768+Q92542+P49810); assay: (§3) Modulation of gamma secretase in human H4 cells over expressing human APP695 harboring K595N/M596L Swedish double mutant assessed as reduction in Abeta42 production after 24 hrs by Alphalisa assay; format: cell-based
Gamma-secretase = assay: as §3; format: cell-based
[30] = Fraction unbound in 10% fetal calf serum; format: ADME, cell-free, Bos taurus; conditions: cattle
[31] = Dark toxicity in human Melanocytes assessed as reduction in cell viability; format: cell-based, Melanocyte
Mus musculus [32] = assay: In vivo modulation of gamma secretase in APP-Swedish transgenic mouse assessed as reduction in Abeta42 production by measuring remaining Abeta42 level at 0.3 mg/kg, po measured after 4 hrs by ELISA or AlphaLISA assay relative to control; format: functional
Mus musculus [33] = assay: In vivo modulation of gamma secretase in APP-Swedish transgenic mouse assessed as reduction in Abeta42 production by measuring remaining Abeta42 level at 1 mg/kg, po measured after 4 hrs by ELISA or AlphaLISA assay relative to control; format: functional
[34] = Covalent protein binding in human liver microsomes assessed per mg protein in presence of NADPH; format: ADME, Microsome
[35] = Ratio of IC50 for dark toxicity in human Keratinocytes to IC50 for phototoxicity in human Keratinocytes in presence of UVA at 320 to 400 nm; format: cell-based, Keratinocyte; conditions: read-out: Ratio IC50
Mus musculus [36] = assay: In vivo modulation of gamma secretase in APP-Swedish transgenic mouse assessed as reduction in Abeta42 production by measuring remaining Abeta42 level at 3 mg/kg, po measured after 4 hrs by ELISA or AlphaLISA assay relative to control; format: functional
Mus musculus [37] = assay: In vivo modulation of gamma secretase in APP-Swedish transgenic mouse assessed as reduction in Abeta42 production by measuring remaining Abeta42 level at 10 mg/kg, po measured after 4 hrs by ELISA or AlphaLISA assay relative to control; format: functional
[38] = Dark toxicity in human Keratinocytes assessed as reduction in cell viability; format: cell-based, Keratinocyte
[39] = Ratio of IC50 for dark toxicity in human Melanocytes to IC50 for phototoxicity in human Melanocytes in presence of UVA at 320 to 400 nm; format: cell-based, Melanocyte; conditions: read-out: Ratio IC50
Mus musculus [40] = assay: In vivo modulation of gamma secretase in APP-Swedish transgenic mouse assessed as reduction in Abeta42 production by measuring remaining Abeta42 level at 30 mg/kg, po measured after 4 hrs by ELISA or AlphaLISA assay relative to control; format: functional

Voltage-gated inwardly rectifying potassium channel KCNH2, sequence (Q12809 whole entry): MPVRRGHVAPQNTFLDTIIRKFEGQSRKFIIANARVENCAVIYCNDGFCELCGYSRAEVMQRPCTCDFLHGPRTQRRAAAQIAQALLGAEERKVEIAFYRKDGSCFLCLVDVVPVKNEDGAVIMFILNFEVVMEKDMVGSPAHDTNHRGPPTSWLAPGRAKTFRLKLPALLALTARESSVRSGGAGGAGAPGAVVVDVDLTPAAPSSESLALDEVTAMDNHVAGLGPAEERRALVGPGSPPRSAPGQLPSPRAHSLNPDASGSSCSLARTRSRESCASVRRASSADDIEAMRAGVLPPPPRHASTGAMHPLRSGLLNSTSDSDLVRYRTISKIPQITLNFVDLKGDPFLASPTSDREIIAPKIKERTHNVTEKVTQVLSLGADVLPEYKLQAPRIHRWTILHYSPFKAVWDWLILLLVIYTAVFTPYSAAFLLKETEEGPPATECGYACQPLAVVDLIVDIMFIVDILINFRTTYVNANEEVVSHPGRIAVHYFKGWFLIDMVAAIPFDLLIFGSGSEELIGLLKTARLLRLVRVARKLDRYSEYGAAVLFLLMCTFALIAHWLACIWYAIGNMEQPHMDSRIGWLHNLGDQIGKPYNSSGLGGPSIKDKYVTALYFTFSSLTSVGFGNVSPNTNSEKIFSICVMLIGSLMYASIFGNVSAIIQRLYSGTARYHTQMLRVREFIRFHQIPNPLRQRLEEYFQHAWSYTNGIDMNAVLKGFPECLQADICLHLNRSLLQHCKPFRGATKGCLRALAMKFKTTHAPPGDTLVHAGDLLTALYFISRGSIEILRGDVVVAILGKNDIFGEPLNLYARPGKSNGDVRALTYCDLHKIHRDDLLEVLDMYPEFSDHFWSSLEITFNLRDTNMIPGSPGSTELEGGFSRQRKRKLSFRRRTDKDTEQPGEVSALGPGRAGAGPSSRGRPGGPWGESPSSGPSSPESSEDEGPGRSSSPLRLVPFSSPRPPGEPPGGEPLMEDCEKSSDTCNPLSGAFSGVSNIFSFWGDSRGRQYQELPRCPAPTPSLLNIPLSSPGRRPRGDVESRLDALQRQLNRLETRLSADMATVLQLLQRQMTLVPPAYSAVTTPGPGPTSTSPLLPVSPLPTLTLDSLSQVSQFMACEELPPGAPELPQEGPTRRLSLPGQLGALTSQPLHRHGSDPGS
hERG (KCNH2), sequence (Q12809 whole entry): as above
Phosphatidylinositol 4-kinase beta, sequence (Q9UBF8 whole entry): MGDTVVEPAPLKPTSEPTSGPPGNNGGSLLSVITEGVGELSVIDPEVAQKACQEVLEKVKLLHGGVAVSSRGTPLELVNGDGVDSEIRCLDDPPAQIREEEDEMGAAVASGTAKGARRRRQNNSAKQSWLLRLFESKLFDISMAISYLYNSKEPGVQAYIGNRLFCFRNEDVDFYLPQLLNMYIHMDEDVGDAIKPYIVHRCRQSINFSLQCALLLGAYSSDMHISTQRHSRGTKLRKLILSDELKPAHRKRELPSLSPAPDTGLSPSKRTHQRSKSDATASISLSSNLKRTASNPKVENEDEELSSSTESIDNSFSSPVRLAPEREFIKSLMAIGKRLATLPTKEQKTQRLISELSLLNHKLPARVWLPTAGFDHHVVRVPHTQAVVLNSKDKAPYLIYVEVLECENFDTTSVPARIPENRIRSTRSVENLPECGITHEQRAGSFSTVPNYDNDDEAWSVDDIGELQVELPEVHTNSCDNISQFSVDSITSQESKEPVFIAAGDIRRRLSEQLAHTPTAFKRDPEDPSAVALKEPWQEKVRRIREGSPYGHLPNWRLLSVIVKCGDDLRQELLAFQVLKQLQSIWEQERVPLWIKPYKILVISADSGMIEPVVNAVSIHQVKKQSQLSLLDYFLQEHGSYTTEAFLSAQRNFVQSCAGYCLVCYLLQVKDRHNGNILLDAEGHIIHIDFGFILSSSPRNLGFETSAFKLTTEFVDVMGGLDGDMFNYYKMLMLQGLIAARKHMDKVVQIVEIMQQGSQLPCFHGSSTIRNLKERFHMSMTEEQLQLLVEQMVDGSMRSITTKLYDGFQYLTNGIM

Row | SMILES | IC50 (Keratinocyte) [µM] | fraction unbound [2] | solubility [3] [µg/mL] | hepatocyte CLint [4] [µL/min/1e6 cells] | fraction unbound [5] | IC50 (Mus musculus [6]) [µM] | Therm solubility [7] [µg/mL] | Activity [8] | Kd [12] [µM] | solubility [13] [µg/mL] | IC20 (hERG (KCNH2)) [µM] | IC50 [19] [µM] | IC50 (Melanocyte) [µM] | hepatocyte CLint [23] [µL/min/1e6 cells] | fIC50 (Mus musculus [25]) [nM] | IC50 [26] [µM] | logD [27] | hepatocyte CLint [28] [µL/min/1e6 cells] | fIC50 [29] [nM] | IC50 (Gamma-secretase) [µM] | further results
1 | Cc1nnc(N2C[C@H]3CC[C@@H](C2)[C@@H]3Nc2nc3c(O[C@@H](C)C(F)(F)F)ccc(C(F)(F)F)n3n2)o1 | 25 | 0.05 | 82 (≈ 162 µM) | 6.3 | 0.043 | 0.04 | 85 | Non-Toxic | > 40 | 234 (≈ 463 µM) | 5.4 | > 20 | 25 | 3.4 | 14 | 0.021 | 3.8 to 3.85 | 1.1 | 19 | 0.03 | half-life [1]: 6.7 h; AUC/dose [9]: 1383 kg·ng·h/mL/mg; clearance [10]: 3.35 mL/min/kg; half-life [11]: 8.1 h; clearance [14]: 3.8 mL/min/kg; bioavailability [15]: 27%; Vd [16]: 2.2 L/kg; Vd [17]: 0.83 L/kg; bioavailability [18]: 33%; AUC/dose [20]: 1748 kg·ng·h/mL/mg; Activity [21]: Non-Toxic; fraction unbound [22]: 0.059; solubility [24]: 390 µg/mL (≈ 772 µM)
2 | Cc1nsc(N2CC3CCC(C2)C3Nc2nc3c(-c4ccc(F)c(F)c4F)cccn3n2)n1 (stereo not given) | 1.67 | 0.004 | 3.8 to 3.86 (≈ 8.06 to 8.19 µM) |  | 0.003 | 0.16 |  |  | 0.12 |  | < 1 | < 2 | 1.67 | 5.4 | 0.9 | 0.004 | 4.1 to 4.14 | 6.6 | 1 | 0.0045 | fraction unbound [30]: 0.22; IC50 [31]: > 38 µM; fIC50 (Mus musculus [6]): 0.5 nM; Activity (Mus musculus [32]): 75%; Activity (Mus musculus [33]): 56%; PB [34]: 105 pmol; selectivity ratio [35]: 22.9 to 23; remaining Abeta42 level (% of control) (Mus musculus [36]): 27%; remaining Abeta42 level (% of control) (Mus musculus [37]): 22%; IC50 [38]: > 38 µM; selectivity ratio [39]: 22.9 to 23
3 | Cc1cc(N2C[C@H]3CC[C@@H](C2)[C@@H]3Nc2nc3c(OCC(F)F)ccc(C(F)(F)F)n3n2)ncn1 | 31 | 0.028 | 88 (≈ 182 µM) | 5.8 | 0.017 |  | 3 | Non-Toxic | 23 | 13 (≈ 26.9 µM) | 1.4 | 4.5 | 31 | 9.4 | 7 | 0.011 | 3.9 | 2.3 | 12 | 0.021 | Activity [21]: Non-Toxic; fraction unbound [22]: 0.01; solubility [24]: 466 µg/mL (≈ 964 µM)
4 | Cc1nsc(N2CC[C@@H](Nc3nc4c(-c5ccc(F)c(F)c5F)cccn4n3)C(F)(F)C2)n1 |  | 0.0003 |  |  | 0.0029 | 2.87 |  |  |  |  |  |  |  |  | 2.3 | 0.038 |  |  | 3.3 | 0.055 | fraction unbound [30]: 0.06; fIC50 (Mus musculus [6]): 8 nM; PB [34]: 149 pmol; remaining Abeta42 level (% of control) (Mus musculus [36]): 64%; remaining Abeta42 level (% of control) (Mus musculus [37]): 46%; Activity (Mus musculus [40]): 31%

Reference: ChEMBL document CHEMBL4619803, “Stepwise Design of γ-Secretase Modulators with an Advanced Profile by Judicious Coordinated Structural Replacements and an Unconventional Phenyl Ring Bioisostere” (J Med Chem, 2020)
